# Measured values: patent US20080288176A1 (priority 2005, published 2008)
# Where two headings read alike, the source gives them in different places.
# Key:
# [1] = test system: male Wistar rats; experiment: Urine alanine aminopeptidase to creatinine ratio (proximal tubular kidney damage); type: in vivo, rat; details: oral gavage, urine collected for 6 hours
# Source text: (§1) Myocardial infarction and ischemic events in high risk patients led one of the most popular COX-2 inhibitors to its demise (Bresalier et al., 2005). Non-selective NSAIDS may also cause similar problems due to their ability to inhibit COX-2. […] Adenosine diphosphate (ADP) generation is an indicator of myocardial infarction which has no connection with the arachidonic acid cascade (Borna et al., 2005). […] Long term NSAID use has been linked to kidney damage and hypertension (Zafirovska et al., 1993). […] This was associated with an increase in the urine the ratio of alanine-amino-peptidase (AAP) and creatinine.
# (§2) Table 1 is a summary of the protocol for a study which was conducted in male Wistar rats weighing 275-300 grams. The animals were allowed to acclimatize for at least five days prior to the commencement of the study. The study protocol was approved by the local animal ethics committee.
# (§3) All test animals, housed in metabolic cages, had urine collected over wet ice for 6 hours after dosing. Aliquots of the urine from each animal were collected to determine creatinine concentration. The remainder of the urine was centrifuged at 1000 g for 10 minutes. The supernatant was collected and mixed with analytical grade ethylene glycol at a rate of 0.4 mL ethylene glycol per 1 mL urine supernatant. The ethylene glycol/urine mixture was stored at −80° C. until analysis.
# [2] = test system: male Wistar rats; experiment: Urine N-acetylglucosaminidase to creatinine ratio (distal tubule toxicity); type: in vivo, rat; details: oral gavage, urine collected for 6 hours
# Protocol: as §2, §3
# [3] = test system: male Wistar rats; experiment: Gastric ulcer index after oral dosing; type: in vivo, rat
# Protocol: as §2
# (§4) The animals were fasted overnight prior to test substance administration. The test substance was administered orally by gavage on the morning of the study day. All test animals had blood collected during the test period in both EDTA (ethylenediaminetetraacetic acid) tubes and SST (Serum Separator Tubes) at 1, 3 and 6 hours after dosing. Blood was collected into EDTA tubes only at 1 and 3 hours by tail tip amputation. Volume of blood collected was between 0.5 and 1 mL at each of these collections. The final collection was by puncture of the abdominal vena cava under isoflurane general anesthesia. Final blood collection was targeted as follows: 1st EDTA #1—1.5 mL; 2nd SST—1.5 mL; 3rd EDTA #2—as much as possible.
# Each animal from all groups underwent a full necropsy under the supervision of a board certified veterinary pathologist. The stomach of each rat was cut along the greater curvature, contents removed into a polypropylene (Falcon) tube, the mucosa rinsed with saline and any obvious ulcers or erosions were measured along the longest axis. This measurement was recorded for each ulcer or erosion observed in each stomach. The falcon tubes and their contents were frozen at −80° C. and shipped to Novokin on dry ice for analysis.
# The aggregate length of all gastric ulcers found in a given animal was calculated. The mean aggregate ulcer length across animals in a group was calculated. This mean value was reported as the ulcer index for that group.
# The ulcer index of each modified drug was compared with the ulcer index of its associated parent drug and the controls using analysis of variance and Duncan's multiple range test for pairwise comparisons. Statistical analysis was done using SAS® (SAS Institute Inc., Cary, N.C.).
# [4] = Rat; estimated from Table II - Runkle, 1972; cited from earlier work
# [5] = test system: cardiac tissue prostacyclin (PGI2) to thromboxane A2 (TXB2) ratio; experiment: Cardiac tissue prostacyclin to thromboxane ratio; type: in vivo, rat; details: male Wistar rats
# Source text: as §1, §2
# All rats were euthanized by removal of the heart 6 hours after initial dosing, following final blood collections. Immediately after terminal blood collections were complete, the thorax was opened and the heart removed. The heart was cut in half longitudinally. Half of the heart was placed in formalin for histological examination. The other half was quickly rinsed in saline and then freeze-clamped (crushed between the jaws of a pair of modified tongs, cooled by liquid nitrogen). An entire kidney was freeze-clamped. The other kidney was left in situ for examination by the pathologist. Freeze-clamped tissues were wrapped in labeled aluminum foil and stored in liquid nitrogen until they could be transferred to a −80° C. freezer. Freeze-clamped tissues were shipped on dry ice to NOVOKIN for analysis.
# [6] = Human; estimated from Table II - Runkle, 1972; cited from earlier work
# [7] = Serum nitrate concentration (NO release) after oral dosing; type: in vivo, rat; details: male Wistar rats, oral gavage, at 6 hours
# Protocol: as §2, §4
# EDTA samples were centrifuged, and the plasma portion was collected and frozen at −80° C. SST samples were incubated at 37° C. for approximately 45 minutes, centrifuged, and the serum was collected and frozen at −80° C. until analysis.
compound,measurement,setting,value
"COc1ccc2cc([C@H](C)C(=O)O)ccc2c1 [NAP, naproxen]","AAP/Cr (urine alanine aminopeptidase to creatinine), Mean",[1],263.788
same,"Urine NAG/Cr values, Mean",[2],30.865
same,"Ulcer Indices, Mean","[3]; oral gavage, naproxen 250 mg/kg or molar equivalent (ROF 250 mg/kg), 6 h after dosing, mean aggregate gastric ulcer length",4.282
same,Ulcerogenicity (in words),"[3]; oral, 6 h",severely ulcerogenic
same,liver microsomal activity,[4],0.0075 mL/min/organ
same,PGI2 and TXA2 levels (in words),[5]; cardiac tissue,lowered both PGI2 and TXA2 levels
same,"Cardiac Tissue PGI2/TXB2, Mean","[5]; oral gavage, heart removed 6 hours after dosing",4.544
same,liver microsomal activity,[6],0.0092 mL/min/organ
same,"Serum Nitrate Concentrations, Mean",[7],55.167
